Measured values reported in patent publication US20120028358A1, “METHOD FOR INCREASING RETROVIRAL INFECTIVITY” (priority 2010, published 2012).

What was measured:
[1] = tested on: rat pulmonary microvascular endothelial cells (PMVEC); assay: Percent GFP-positive (infected) target cells after conditioned medium from Phoenix cells; format: cell-based
PMVEC [2] = assay: Viral DNA content in total DNA of infected target cells (qPCR); format: cell-based, rat
Procedure: (§1) Viral DNA measurement: The total DNA from infected cells was extracted by DNeasy Blood & tissue kit (Qiagen). The level of viral DNA in total DNA extract isolated from infected cells was determined by quantitative PCR using iScript One-Step RT-PCR kit (with SYBR Green, Bio-Rad, 170-8893) with primers for the GFP or the internal ribosome entry site regions of the viral DNA following the manufacturer's instructions. No reverse transcriptase was used in order to exclude contamination from a viral RNA signal. In integration studies, the total DNA isolated from infected cells was first resolved in a 0.8% agarose gel. […] DNA from each fraction was extracted and analyzed for the presence of viral sequences by qPCR as previously described.
Reverse transcription—the transcribing of genetic information from RNA to DNA—is a hallmark of the retroviral replication cycle. The enzyme reverse transcriptase catalyzes this process and plays a critical role in viral cycling (40). […] After that, virus was removed from the medium. The viral DNA content in infected cells was measured by qPCR using primers to the GFP region of viral DNA. […] Viral DNA content peaked six hours after infection and then began to decrease. […] Twenty four hours after infection the viral DNA content was decreased in all cells likely due to a combination of viral degradation and target cell proliferation resulting in the dilution of non-integrated viral DNA. The content of viral DNA in mifepristone-treated target cells was higher than that in vehicle-treated cells at 24 hours, a difference that persisted throughout the seven days of the experiment.

PMVEC [3] = assay: Non-integrated (4 Kb) and integrated (>50 Kb genomic) viral DNA in infected PMVEC (qPCR); format: cell-based, rat
Procedure: as §1
While newly synthesized viral DNA can persist either as linear forms, one LTR circles, or two LTR circles for a period of time, ultimately this viral DNA must be either integrated (to complete an infection cycle) or degraded. If it is integrated into the host genome, viral DNA should be detectable within the genomic DNA immediately after incorporation. […] In contrast, the amount of viral DNA that was integrated into the genomic fraction was greater in mifepristone-treated cells at all time points (FIG. 13C).

CC#C[C@]1(O)CC[C@H]2[C@@H]3CCC4=CC(=O)CCC4=C3[C@@H](c3ccc(N(C)C)cc3)C[C@@]21C [mifepristone, 11-beta-(4-dimethylaminophenyl)-17-beta-hydroxy-17-alpha-(1-propynyl)-estra-4,9-dien-3-one]
Target cell infectivity by place of addition (packaging cells or collected medium) ([1]; 2 μmol mifepristone, 100 nmol dexamethasone (FIG. 7B)): increased target cell infectivity to a similar degree | Percentage of infected cells ([1]; mifepristone at 2 μmol and higher concentration): more than doubled | Content of viral DNA versus vehicle-treated cells (PMVEC [2]; 24 hours after infection, persisted seven days): higher | Viral DNA level versus vehicle-treated cells (PMVEC [2]; 3 days post infection): two-fold increase | Viral DNA levels versus vehicle-treated cells (PMVEC [2]; first 6 hours after infection): no difference | Free viral DNA (4 Kb fragment) versus vehicle-treated cells (PMVEC [3]; 1, 6, 24 hours, 3 and 7 days): At no time did the mifepristone-treated cells demonstrate greater | Viral DNA integrated into the genomic fraction versus vehicle (PMVEC [3]; all time points): greater
